The results in this text go back to the C3SDB collision cross section collection.

For series [1] the following is noted: instrument: DT, stepped-field.
The conditions of series [2]: instrument: DT, single field, calibrated with Agilent tune mix (Agilent).

SMILES strings stand for the structures.

For `Cn1cnc2ncnc-2c1N` [1-Methyladenine], the “collision cross section (N2)” value in series [1] ([M+H]+) came out at 128.35 Å².

As for `Cn1c(N)nc2c(ncn2[C@@H]2O[C@H](CO)[C@@H](O)[C@H]2O)c1=O` [1-Methylguanosine], the “collision cross section (N2)” value in series [1] ([M+H]+) was 168.8 Å²; in series [1] ([M+Na]+), 180.8 Å².

For `Cc1cccc2ccccc12` [1-methylnaphthalene], the “collision cross section (N2)” value in series [1] ([M+H]+) came to 125.2 Å².

As for `O=C(O)CNC(=O)c1ccccc1O` [2-Hydroxy Hippuric Acid], the “collision cross section (N2)” value in series [1] ([M+Na]+) amounted to 154.87 Å².

As to `COc1cc2c(cc1O)CC[C@@H]1[C@@H]2CC[C@]2(C)C(=O)CC[C@@H]12` [2-Methoxyestrone], the “collision cross section (N2)” value in series [1] ([M+H]+) was determined as 174.47 Å²; in series [1] ([M+Na]+), 201.71 Å².

`CCCC(=O)C(=O)O` [2-Oxovaleric Acid]: the “collision cross section (N2)” value in series [1] ([M+Na]+) is reported as 131.64 Å².

Take `O=C(O)C1=CC(=O)[C@@H](O)[C@H](O)C1` [3-Dehydroshikimic Acid]: the “collision cross section (N2)” value in series [1] ([M+H]+) came to 132.73 Å².

With `NC(=O)NCCC(=O)O` [3-Ureidopropionic Acid], the “collision cross section (N2)” value in series [1] ([M+Na]+) is recorded as 135.8 Å².

Consider `Cc1ncc(CO)c(C(=O)O)c1O` [4-Pyridoxate], for which the entries for the “collision cross section (N2)” value in series [1] ([M+H]+) and in series [1] ([M+Na]+) were 137.27 Å² and 151.78 Å², respectively.

As to `CSC[C@H]1O[C@@H](n2cnc3c(N)ncnc32)[C@H](O)[C@@H]1O` [5'-Methylthioadenosine], the “collision cross section (N2)” value in series [1] ([M+H]+) was found to be 173.03 Å²; in series [1] ([M+Na]+) it was 176.54 Å².

As for `CCCCC/C=C\C/C=C\C/C=C\C=C\[C@@H](O)CCCC(=O)O` [5S-HETE], the “collision cross section (N2)” value in series [1] ([M+Na]+) came out at 188.21 Å².

For `Cn1cnc2[nH]c(N)nc(=O)c21` [7-Methylguanine], the figures for the “collision cross section (N2)” value in series [1] ([M+H]+) and in series [1] ([M+Na]+) were 134.33 Å² and 149.72 Å², respectively.

As to `CCCCC/C=C\C[C@@H](O)/C=C/C=C\C/C=C\CCCC(=O)O` [12R-HETE], the “collision cross section (N2)” value in series [1] ([M+Na]+) is 194.4 Å².

For the compound `CCCCCC(O)/C=C/C=C\CCCCCCCC(=O)O` (stereo not drawn) [13-HODE], in series [1] ([M+Na]+), the “collision cross section (N2)” value is 191.83 Å².

Regarding `CCCCCCCC/C=C\CCCCCCCC(=O)OC[C@@H](O)COP(=O)([O-])OCC[N+](C)(C)C` [18:1 Lyso PC], in series [1] ([M+Na]+), the “collision cross section (N2)” value came out at 239.53 Å².

As to `CC1=CC(=O)CC(C)(C)C1(O)/C=C/C(C)=C\C(=O)O` (stereo not drawn) [Abscisic Acid], the entries for the “collision cross section (N2)” value in series [1] ([M+H]+) and in series [1] ([M+Na]+) were 160.56 Å² and 176.18 Å², respectively.

For `CC(=O)OP(=O)(O)O` [Acetyl Phosphate], the “collision cross section (N2)” value in series [1] ([M+Na]+) came out at 125.44 Å².

As to `CC(=O)SCCNC(=O)CCNC(=O)[C@H](O)C(C)(C)COP(=O)(O)OP(=O)(O)OC[C@H]1O[C@@H](n2cnc3c(N)ncnc32)[C@H](O)[C@@H]1OP(=O)(O)O` [Acetyl coenzyme A], the “collision cross section (N2)” value amounted to 249.8 Å² in series [1] ([M+H]+) and 263.07 Å² in series [1] ([M+Na]+).

Turning to `Nc1ncnc2c1ncn2[C@@H]1O[C@H](COP(=O)(O)O)[C@@H](O)[C@H]1O` [Adenosine 5' Monophosphate], the “collision cross section (N2)” value in series [1] ([M+H]+) was 173.33 Å²; in series [1] ([M+Na]+), 180.73 Å².

For the compound `O=c1cc(-c2ccc(O)c(-c3c(O)cc(O)c4c(=O)cc(-c5ccc(O)cc5)oc34)c2)oc2cc(O)cc(O)c12` [Amentoflavone], the “collision cross section (N2)” value in series [1] ([M+H]+) is on record as 230.16 Å².

Regarding `Nc1ccccc1S(=O)(=O)O` [Aniline-2-sulfonic Acid], in series [1] ([M+Na]+), the “collision cross section (N2)” value was determined as 153.23 Å².

As for `C[C@]12CC[C@@H](O)C[C@H]1CC[C@@H]1[C@@H]2[C@@H](O)C[C@@]2(C)[C@H]1CC[C@]2(O)[C@H](O)CO` [B-Cortol], the “collision cross section (N2)” value in series [1] ([M+Na]+) is recorded as 204.59 Å².

`O=C1c2ccccc2-c2cccc3cccc1c23` [Benzanthrone]: in series [1] ([M+H]+), the “collision cross section (N2)” value turned out to be 145.71 Å².

Consider `c1ccc2cc3c(cc2c1)-c1cccc2cccc-3c12` [Benzo(k)fluoranthene], for which, in series [1] ([M+H]+), the “collision cross section (N2)” value amounted to 154.36 Å².

As to `NCCCNCCCN` [Bis(3-aminopropyl)amine], the “collision cross section (N2)” value in series [1] ([M+H]+) stood at 128.52 Å².

`Oc1cc(O)c2c(c1)O[C@H](c1ccc(O)c(O)c1)[C@@H](O)C2` [Catechin]: the “collision cross section (N2)” value in series [1] ([M+H]+) came out at 165.18 Å²; in series [1] ([M+Na]+), 184.42 Å².

As to `OC[C@H]1O[C@@H](O[C@H]2[C@H](O)[C@@H](O)[C@H](O[C@H]3[C@H](O)[C@@H](O)C(O)O[C@@H]3CO)O[C@@H]2CO)[C@H](O)[C@@H](O)[C@@H]1O` (stereo partly drawn) [Cellotriose], in series [1] ([M+Na]+), the “collision cross section (N2)” value is given as 215.69 Å².

In the case of `C[C@]12CCC(=O)C=C1CC[C@@H]1[C@@H]2[C@@H](O)C[C@@]2(C)[C@H]1CC[C@]2(O)C(=O)CO` [Cortisol], the figures for the “collision cross section (N2)” value in series [1] ([M+H]+) and in series [1] ([M+Na]+) were 188.88 Å² and 213.91 Å², respectively.

For the compound `N[C@H]1C(O)O[C@H](CO)[C@@H](O)[C@@H]1O` (stereo partly drawn) [D-Glucosamine], the “collision cross section (N2)” value came to 135.59 Å² in series [1] ([M+H]+) and 147.19 Å² in series [1] ([M+Na]+).

In the case of `CC(C)(CO)[C@@H](O)C(=O)NCCC(=O)O` [D-Pantothenic Acid], the “collision cross section (N2)” value in series [1] ([M+H]+) amounted to 150.17 Å²; in series [1] ([M+Na]+), 155.27 Å².

Turning to `O=c1c(-c2ccc(O)cc2)coc2cc(O)ccc12` [Daidzein], the entries for the “collision cross section (N2)” value in series [1] ([M+H]+) and in series [1] ([M+Na]+) were 157.23 Å² and 173.13 Å², respectively.

For the compound `C[N+](C)(C)CCCC(=O)[O-]` [Deoxycarnitine], the “collision cross section (N2)” value in series [1] ([M+H]+) turned out to be 130.4 Å².

With `O=c1ccn([C@H]2C[C@H](O)[C@@H](CO)O2)c(=O)[nH]1` [Deoxyuridine], the “collision cross section (N2)” value in series [1] ([M+Na]+) is reported as 159.45 Å².

In the case of `COc1c(Cl)ccc(Cl)c1C(=O)O` [Dicamba], the “collision cross section (N2)” value in series [1] ([M+Na]+) was 157.21 Å².

As for `OCCNCCO` [Diethanolamine], the “collision cross section (N2)” value in series [1] ([M+H]+) is 123.33 Å².

On to `O=C(CO)COP(=O)(O)O` [Dihydroxyacetone Phosphate], for which the “collision cross section (N2)” value in series [1] ([M+Na]+) was found to be 144.07 Å².

Consider `CC/C=C\C/C=C\C/C=C\C/C=C\C/C=C\C/C=C\CCC(=O)O` [Docosahexaenoic Acid], for which the “collision cross section (N2)” value is reported as 184.62 Å² in series [1] ([M+H]+) and 185.06 Å² in series [1] ([M+Na]+).

`COc1ccc(-c2coc3cc(O)ccc3c2=O)cc1` [Formononetin]: the “collision cross section (N2)” value in series [1] ([M+Na]+) is on record as 176.14 Å².

In the case of `O=C(CO)[C@@H](O)[C@H](O)[C@H](O)COP(=O)(O)O` [Fructose-6-phosphate], the “collision cross section (N2)” value in series [1] ([M+Na]+) was 156.44 Å².

As to `O=C(O)/C=C/C(=O)O` [Fumaric Acid], in series [1] ([M+Na]+), the “collision cross section (N2)” value came to 133.58 Å².

`COC(=O)c1c(Cl)nn(C)c1S(=O)(=O)NC(=O)Nc1nc(OC)cc(OC)n1` [Halosulfuron-methyl]: the “collision cross section (N2)” value is on record as 196.48 Å² in series [1] ([M+H]+) and 201.41 Å² in series [1] ([M+Na]+).

Take `COc1ccc([C@@H]2CC(=O)c3c(O)cc(O)cc3O2)cc1O` [Hesperetin]: the “collision cross section (N2)” value in series [1] ([M+H]+) turned out to be 176.54 Å²; in series [1] ([M+Na]+), 184.45 Å².

For the compound `O=C(O)CNC(=O)c1ccccc1` [Hippuric Acid], the “collision cross section (N2)” value in series [1] ([M+H]+) came to 146.82 Å²; in series [1] ([M+Na]+), 154.06 Å².

Turning to `COc1cc(CC(=O)O)ccc1O` [Homovanillic Acid], the “collision cross section (N2)” value in series [1] ([M+Na]+) is given as 149.57 Å².

For the compound `CCCCC/C=C\C/C=C\CCCCCCCCCC(=O)O` [Icosadienoic Acid], the “collision cross section (N2)” value in series [1] ([M+Na]+) was 184.05 Å².

With `O=C(O)Cc1cnc[nH]1` [Imidazole-4-acetic Acid], the “collision cross section (N2)” value is listed as 128.23 Å² in series [1] ([M+H]+) and 148.03 Å² in series [1] ([M+Na]+).

On to `Cc1ccc2c(c1)[C@H](Nc1nc(N)nc(C(C)F)n1)[C@@H](C)C2` (stereo partly drawn) [Indaziflam], for which the entries for the “collision cross section (N2)” value in series [1] ([M+H]+) and in series [1] ([M+Na]+) were 169.27 Å² and 174.6 Å², respectively.

Regarding `O=C(O)Cc1c[nH]c2ccccc12` [Indoleacetic Acid], in series [1] ([M+H]+), the “collision cross section (N2)” value amounted to 138.11 Å².

As for `COc1ccc2c(c1)c(CC(=O)O)c(C)n2C(=O)c1ccc(Cl)cc1` [Indomethacin], the “collision cross section (N2)” value in series [1] ([M+H]+) turned out to be 183.55 Å²; in series [1] ([M+Na]+), 195.98 Å².

Regarding `OC[C@H]1O[C@H](OC[C@H]2O[C@H](OC[C@H]3OC(O)[C@H](O)[C@@H](O)[C@@H]3O)[C@H](O)[C@@H](O)[C@@H]2O)[C@H](O)[C@@H](O)[C@@H]1O` (stereo partly drawn) [Isomaltotriose], the “collision cross section (N2)” value in series [1] ([M+Na]+) came to 210.83 Å².

On to `O=C(O)c1cc(=O)c2ccccc2[nH]1` [Kynurenic Acid], for which the “collision cross section (N2)” value is listed as 140.99 Å² in series [1] ([M+H]+) and 154.12 Å² in series [1] ([M+Na]+).

As to `Nc1ccccc1C(=O)CC(N)C(=O)O` (stereo not drawn) [Kynurenine], the “collision cross section (N2)” value in series [1] ([M+H]+) turned out to be 151.07 Å².

For `OC1OC[C@H](O)[C@H](O)[C@H]1O` (stereo partly drawn) [L-Arabinose], the “collision cross section (N2)” value in series [1] ([M+Na]+) turned out to be 141.86 Å².

In the case of `O=C1O[C@H]([C@@H](O)CO)C(O)=C1O` [L-Ascorbic Acid], the “collision cross section (N2)” value in series [1] ([M+Na]+) came out at 146.11 Å².

Take `NCCC[C@H](N)C(=O)O` [L-Ornithine]: in series [1] ([M+H]+), the “collision cross section (N2)” value is 129.79 Å².

As for `C[C@@H]1OC(O)[C@H](O)[C@H](O)[C@H]1O` (stereo partly drawn) [L-Rhamnose], the “collision cross section (N2)” value in series [1] ([M+Na]+) is reported as 146.3 Å².

For `O=C(O)[C@@H](O)[C@@H](O)[C@@H](O)CO` [L-Ribonic Acid], the “collision cross section (N2)” value in series [1] ([M+Na]+) worked out at 143.47 Å².

As for `CSCC[C@H](NC(=O)CC[C@H](N)C(=O)O)C(=O)O` [gamma-Glutamylmethionine], the “collision cross section (N2)” value in series [2] ([M+H]+) stood at 165.1 Å².

Consider `O=C(O)/C=C/c1ccccc1O` [trans-2-Hydroxycinnamic acid], for which the “collision cross section (N2)” value in series [2] ([M+H-H2O]+) stood at 124.1 Å².

Regarding `C[C@]12CC[C@H](O)CC1=CC[C@@H]1[C@@H]2CC[C@]2(C)C(=O)CC[C@@H]12` [trans-Dehydroandrosterone], the entries for the “collision cross section (N2)” value in series [2] ([M+H-H2O]+) and in series [2] ([M-H]-) were 166 Å² and 175.34 Å², respectively.

Take `CCCCCC/C=C/CCCCCCCCCC(=O)O` [trans-Vaccenic acid]: the “collision cross section (N2)” value in series [2] ([M-H]-) was determined as 174.95 Å².
